Laboratory results reported in US20120196899A1, “METHODS AND PRODUCTS FOR TREATING INFLAMMATION” (Rock Creek Pharmaceuticals, Inc., priority 2010, published 2012).
Several values for one entry are separate records, joined by “and”; a condition that tells them apart may be missing. Equal entries are not always repeated. Where two headings read alike, the source gives them in different places.

Assay: Plasma pharmacokinetics after oral multi-dose anatabine polacrilex
Assay type: in vivo, Sprague-Dawley rats
Conditions: for Cp,max(1): after dose 1, mean; for Cp,max(3): after dose 3, mean; for Cp,max(2): after dose 2, mean; for AUC(0-inf) / concentration at 270 min / concentration at 300 min / concentration at 475 min / concentration at 540 min / concentration at 600 min / concentration at 720 min / concentration at 30 min / concentration at 60 min / concentration at 235 min / half-life: Sprague-Dawley, rat, plasma; for AUC(0-inf) / half-life: po; for concentration at 270 min / concentration at 300 min / concentration at 475 min / concentration at 540 min / concentration at 600 min / concentration at 720 min / concentration at 30 min / concentration at 60 min / concentration at 235 min: oral, Avg. Conc. of anatabine in plasma, Male and Female
Method: This study consisted of two groups of 8 animals each, 4 males and 4 females.
Two formulations were prepared; one for each of the two treatment groups. The test compound was formulated for each treatment group just prior to the first dose administration and constantly stirred until dosing was completed (Table 37). Four aliquots of each dose level formulation were collected and stored at −80° C.
The animals were weighed prior to dosing and received three doses p.o. of test compound at a volume of 5 mL/kg. Blood was collected via the venus plexus (retro-orbital) into tubes containing (K2) EDTA. No more than 0.5 mL was collected per time point.
Plasma was separated as per package instructions for MICROTAINER® brand collection tubes (3 minutes, 2000×g). Plasma was decanted into microfuge tubes and stored at −80° C. Remaining test compound was placed at −80° C.
Sample preparation. Plasma samples were treated with three volumes of methanol containing internal standard at 1 μM (R,S)-Antabine-2,4,5,6-d4), incubated 10 min at 4° C., and centrifuged. The amount of the test agent in the supernatant was determined by LC/MS/MS.
Analysis. Samples were analyzed by LC/MS/MS using an Agilent 6410 mass spectrometer coupled with an Agilent 1200 high pressure liquid chromatography (HPLC) and a CTC PAL chilled autosampler, all controlled by MassHunter software (Agilent). After separation on a Hydrophilic interaction liquid chromatography (HILIC) HPLC column (Sepax) using an acetonitrile-ammonium acetate/acetic acid gradient system, peaks were analyzed by mass spectrometry (MS) using ESI ionization in multiple reaction monitoring (MRM) mode. MassHunter software was used to calculate the concentration of the test compounds in samples from the peak area using the appropriate calibration curves.
Calibration samples. Calibration curves were determined in rat plasma. Calibration samples were prepared by diluting a 50× stock solution of the test compound in PBS with blank matrix to the appropriate concentration and these samples were prepared as described above in the sample preparation.
Data Analysis. Descriptive statistics were calculated for all pharmacokinetic parameters. Elimination half-lives (t1/2) were calculated by linear regression of logarithmically transformed plasma concentration data for each period between doses and following the final dose.
Total areas under the plasma concentration curves (AUC) and under the first moment curves (AUMC) were calculated using linear trapezoidal summation across all concentration time points as well as for intervals between each dose administration and following the final dose. […] Mean absorption times (MAT) were calculated according to the following relation: […]
where MRT represents the mean residence time. This was calculated from the mean residence times.
The statistical comparison of parameters between male and female animals was made using a two-tailed, unpaired, t-test with a 95 percent confidence interval. Repeated-measures analysis of variance (ANOVA) was used for multiple comparisons of Cp, max involving successive determinations on the same group of animals.

[1] = 0.6 mg/kg, male and female combined, mean
[2] = 6.0 mg/kg, male and female combined, mean
[3] = all data combined (overall), mean
[4] = both dose levels and genders combined, anatabine polacrilex p.o.
[5] = both treatment groups combined, female rats, mean
[6] = both treatment groups combined, male rats, mean

C1=CCC(c2cccnc2)NC1 (racemic) [Anatabine, 1,2,3,6-tetrahydro-[2,3′]bipyridinyl]
Cp,min(2) (0.6 mg/kg BW group, first value of male versus female comparison): 15.3 ± 5.5 ng/mL
Cp,min(2) (0.6 mg/kg BW group, second value of male versus female comparison): 7.5 ± 1.7 ng/mL
Cp,max(1) (0.6 mg/kg, female rats): 38.3 ng/mL
Cp,min(1) (0.6 mg/kg, female rats, mean): 10.3 ng/mL
Cp,min(2) (0.6 mg/kg, female rats, mean): 7.5 ng/mL
MAT0→4 (mean absorption time) (0.6 mg/kg, female rats, mean): 0.53 h
MTT0→4 (mean transit time) (0.6 mg/kg, female rats, mean): 2.98 h
AUC0→∞ [1]: 285 ng·h/mL
MAT0→4 [1]: 0.61 h
MTT0→4 [1]: 3.06 h
Cp,max(1) (0.6 mg/kg, male rats): 34.3 ng/mL
Cp,max(3) (0.6 mg/kg, male rats): 37.3 ng/mL
Cp,min(1) (0.6 mg/kg, male rats, mean): 11.0 ng/mL
Cp,min(2) (0.6 mg/kg, male rats, mean): 15.3 ng/mL
MAT0→4 (mean absorption time) (0.6 mg/kg, male rats, mean): 0.71 h
MTT0→4 (mean transit time) (0.6 mg/kg, male rats, mean): 3.17 h
Cp,min(2) (6.0 mg/kg BW group, first value of male versus female comparison): 93 ± 16 ng/mL
Cp,max(1) (6.0 mg/kg, female rats): 260 ng/mL and 259.8 ng/mL
Cp,max(2) (6.0 mg/kg, female rats): 312 ng/mL and 312.0 ng/mL
Cp,max(3) (6.0 mg/kg, female rats): 375 ng/mL and 374.8 ng/mL
Cp,min(1) (6.0 mg/kg, female rats, mean): 52 ng/mL and 51.5 ng/mL
Cp,min(2) (6.0 mg/kg, female rats, mean): 180 ng/mL and 180.0 ng/mL
MAT0→4 (mean absorption time) (6.0 mg/kg, female rats, mean): 0.30 h
MTT0→4 (mean transit time) (6.0 mg/kg, female rats, mean): 2.76 h
AUC0→∞ [2]: 3496 ng·h/mL
MAT0→4 [2]: 0.52 h
MTT0→4 [2]: 2.97 h
Cp,max(1) (6.0 mg/kg, male rats): 287 ng/mL
Cp,max(2) (6.0 mg/kg, male rats): 305 ng/mL
Cp,min(1) (6.0 mg/kg, male rats, mean): 75 ng/mL
Cp,min(2) (6.0 mg/kg, male rats, mean): 93 ng/mL
MAT0→4 (mean absorption time) (6.0 mg/kg, male rats, mean): 0.73 h
MTT0→4 (mean transit time) (6.0 mg/kg, male rats, mean): 3.18 h
AUC(0-inf) (0.6 mg/kg, female rats, mean): 290 ng·h/mL
AUC(0-inf) (0.6 mg/kg, male rats, mean): 280 ng·h/mL
AUC(0-inf) (6.0 mg/kg, female rats, mean): 3740 ng·h/mL
AUC(0-inf) (6.0 mg/kg, male rats, mean): 3260 ng·h/mL
MAT0→4 [3]: 0.56 h
MTT0→4 [3]: 3.01 h
mean absorption time (MAT0→4) [4]: 0.56 ± 1.25 h
mean transit time (MTT0→4) [4]: 3.01 ± 1.25 h
concentration at 270 min (both sexes, 0.2 mg/kg BW, dose group 0.2, combined male and female, 270 min): 26 ng/mL
concentration at 300 min (both sexes, 0.2 mg/kg BW, dose group 0.2, combined male and female, 300 min): 27 ng/mL
concentration at 475 min (both sexes, 0.2 mg/kg BW, dose group 0.2, combined male and female, 475 min): 11 ng/mL
concentration at 540 min (both sexes, 0.2 mg/kg BW, dose group 0.2, combined male and female, 540 min): 30 ng/mL
concentration at 600 min (both sexes, 0.2 mg/kg BW, dose group 0.2, combined male and female, 600 min): 26 ng/mL
concentration at 720 min (both sexes, 0.2 mg/kg BW, dose group 0.2, combined male and female, 720 min): 13 ng/mL
concentration at 30 min (both sexes, 0.2 mg/kg, dose group 0.2, combined male and female, 30 min): 36 ng/mL
concentration at 60 min (both sexes, 0.2 mg/kg, dose group 0.2, combined male and female, 60 min): 31 ng/mL
concentration at 235 min (both sexes, 0.2 mg/kg, dose group 0.2, combined male and female, 235 min): 10 ng/mL
concentration at 30 min (both sexes, 2 mg/kg BW, dose group 2, combined male and female, 30 min): 201 ng/mL
concentration at 60 min (both sexes, 2 mg/kg BW, dose group 2, combined male and female, 60 min): 139 ng/mL
concentration at 235 min (both sexes, 2 mg/kg BW, dose group 2, combined male and female, 235 min): 63 ng/mL
concentration at 270 min (both sexes, 2 mg/kg BW, dose group 2, combined male and female, 270 min): 278 ng/mL
concentration at 300 min (both sexes, 2 mg/kg BW, dose group 2, combined male and female, 300 min): 222 ng/mL
concentration at 475 min (both sexes, 2 mg/kg BW, dose group 2, combined male and female, 475 min): 136 ng/mL
concentration at 540 min (both sexes, 2 mg/kg BW, dose group 2, combined male and female, 540 min): 286 ng/mL
concentration at 600 min (both sexes, 2 mg/kg BW, dose group 2, combined male and female, 600 min): 237 ng/mL
concentration at 720 min (both sexes, 2 mg/kg BW, dose group 2, combined male and female, 720 min): 194 ng/mL
half-life (both sexes, 0.6 mg/kg, 0.6 mg/kg BW total p.o., after final dose, males and females combined, read-out: t1/2, terminal (converted)): 1.79 ± 0.64 h
half-life (both sexes, 0.6 mg/kg, male and female combined, mean, read-out: t1/2,0→4 (converted)): 2.05 h
half-life (both sexes, 0.6 mg/kg, male and female combined, mean, read-out: t1/2,terminal (converted)): 1.79 h
half-life (both sexes, 6 mg/kg, 6.0 mg/kg BW total p.o., after final dose, males and females combined, read-out: t1/2, terminal (converted)): 4.53 ± 1.77 h
half-life (both sexes, 6 mg/kg, male and female combined, mean, read-out: t1/2,0→4 (converted)): 1.79 h
half-life (both sexes, 6 mg/kg, male and female combined, mean, read-out: t1/2,terminal (converted)): 4.53 h
half-life (both sexes, all data combined (overall), mean, read-out: t1/2,0→4 (converted)): 1.93 h
half-life (both sexes, both dose levels and genders combined, anatabine polacrilex p.o., read-out: elimination half-life following the first oral dose (t1/2, 0→4) (converted)): 1.93 ± 0.73 h
AUC(0-inf) (both sexes, 0.6 mg/kg BW total p.o., males and females combined): 285 ± 77 ng·h/mL
AUC(0-inf) (both sexes, 6.0 mg/kg BW total p.o., males and females combined): 3500 ± 559 ng·h/mL
MAT0→4 [5]: 0.42 h
MTT0→4 [5]: 2.87 h
MAT0→4 [6]: 0.72 h
MTT0→4 [6]: 3.18 h
Anatabine Concentration in rat plasma (dose 0.2 mg/kg, female, […], individual animals 2A-2D): <LOQ
Anatabine Concentration in rat plasma (dose 0.2 mg/kg, male, 30 min, individual animals 1A-1D): <LOQ
Anatabine Concentration in rat plasma (dose 0.2 mg/kg, male, 60 min, individual animals 1A-1D): 34 ng/mL
Anatabine Concentration in rat plasma (dose 0.2 mg/kg, male, 235 min, individual animals 1A-1D): <LOQ and 13 ng/mL
Anatabine Concentration in rat plasma (dose 0.2 mg/kg, male, 270 min, individual animals 1A-1D): 31 ng/mL and 20 ng/mL
Anatabine Concentration in rat plasma (dose 0.2 mg/kg, male, 300 min, individual animals 1A-1D): 26 ng/mL and 29 ng/mL
Anatabine Concentration in rat plasma (dose 0.2 mg/kg, male, 475 min, individual animals 1A-1D): 9 ng/mL and <LOQ and 18 ng/mL
Anatabine Concentration in rat plasma (dose 0.2 mg/kg, male, 540 min, individual animals 1A-1D): 4 ng/mL and 28 ng/mL and 41 ng/mL
Anatabine Concentration in rat plasma (dose 0.2 mg/kg, male, 600 min, individual animals 1A-1D): <LOQ and 17 ng/mL and 35 ng/mL
Anatabine Concentration in rat plasma (dose 0.2 mg/kg, male, 720 min, individual animals 1A-1D): <LOQ and 5 ng/mL and 12 ng/mL
Anatabine Concentration in rat plasma (dose 0.2 mg/kg, male, […], individual animals 1A-1D): <LOQ
Anatabine Concentration in rat plasma (dose 2 mg/kg, female, 30 min, individual animals 4A-4D): 78 ng/mL and 218 ng/mL and 98 ng/mL
Anatabine Concentration in rat plasma (dose 2 mg/kg, female, 60 min, individual animals 4A-4D): 81 ng/mL and 95 ng/mL and 165 ng/mL
Anatabine Concentration in rat plasma (dose 2 mg/kg, female, 235 min, individual animals 4A-4D): 75 ng/mL and 36 ng/mL and 23 ng/mL and 72 ng/mL
